Experimental data reported in patent US20150352111A1, “Therapeutic Indications of Kinase Inhibitors” (Pulmokine, Inc., priority 2013, published 2015).
“And” between values parts separate entries of the source, which are not always exact repeats. Equal values may be shown once. “Also recorded” adds a separate entry of the source. Marks after values point to notes of the source that are not given here.

What was measured:
[1] = biological target: T1, PDGFR alpha receptor (Homo sapiens, UniProt P16234); test: Z-lyte in vitro kinase assay (Invitrogen Select Screen); type: biochemical; conditions: ATP Km
T1 construct: purchased Invitrogen (Select Screen service)

[2] = biological target: PDGFR beta receptor (Homo sapiens, UniProt P09619); test: as above; type: biochemical; conditions: ATP Km
Method: In Vitro Kinase Assay. A Z-lyte kinase assay was performed to determine the inhibition of PDGFRalpha and PDGFRbeta mediated phosphorylation by PK10453. Ten point titration curves were modeled to calculate the IC50 (Invitrogen Select Screen®).

[3] = tested on: Human pulmonary artery smooth muscle cells; test: PASMC proliferation assay (Cyquant NF); type: cell-based; conditions: PDGF BB 50 ng/ml, 24 hours, read-out: IC50, PDGF BB stimulated human PA SMC proliferation
Method: PASMC Proliferation Assay.
Human pulmonary artery smooth muscle cells were obtained from Cell Applications (San Diego, Calif.) and grown to 50% confluence in a 96 well format. The cells were switched to serum free media 24 hours prior to stimulation with PDGF BB 50 ng/ml and varying concentrations of PK10453. After 24 hours of treatment, a Cyquant NF Cell proliferation assay was performed (Invitrogen®), and the fluorescent signal was measured with a Cytofluor Plate reader. Data is based on an avg. of 8 replicates at each conc.

[4] = Fluorescent imaging of lung distribution of inhaled drug with IR780 tracer; type: in vivo, rat; conditions: inhalation with IR780 tracer, 2 min exposure
Method: The spatial distribution of inhaled PK10453 in the lung was evaluated by fluorescent imaging. For this study, a near IR fluorescent tracer, IR-780, was added to the drug solution in the nebulizer. In this way, the dried aerosol particles contained both the drug and IR tracer. After a two minute exposure, animals were placed under general anesthesia underwent intubation via tracheostomy, and the lungs were excised. OCT/PBS was infused via the pulmonary artery, the lung insufflated with air, and the lungs frozen in the vapor phase of liquid nitrogen. Serial approximate 2 mm sections of the lung were made and imaged on a Licor Odyssey Imager.

[5] = Pharmacokinetic study, IV vs inhalation, lung and plasma; type: in vivo, rat; conditions: for AUC: rat
Method: PK10453 was administered intravenously or by inhalation to animals, which were then euthanized at time 0, 10, 20, and 60 minutes (n=3 each time point). Blood samples were taken by cardiac puncture, and the lungs excised. The lungs were homogenized and PK10453 extracted with a 1:3 mixture of acetonitrile:methanol. Similarly, plasma was extracted with a 1:3 mixture of acetonitrile:methanol. Drug was assayed by LC MS/MS (PharmOptima Inc., Portage Mich.). First order exponential curves were fit to the data with Excel. The AUC was determined with the trapezoidal method of integration.
For the pharmacokinetic study, the concentration of PK10453 in lung when administered by inhalation was compared to the concentration achieved with IV administration. As described in Morén “Aerosols in medicine: principles, diagnosis, and therapy.” Amsterdam; New York: Elsevier. xx, 429 (1993) and Phalen et al., “Inhalation exposure methodology.” Environ Health Perspect 56:23-34 (1984)), it is possible to estimate the pharmacokinetic advantage of inhalation relative to intravenous administration, Rd, by comparing the areas under the curve (AUC) of a plot of the drug concentration as a function of time following respiratory and intravenous (IV) administration:
Rd=[(AUClung/AUCplasma)respiratory]/[(AUClung/AUCplasma)IV]

[6] = tested on: rat MCT model of PAH; test: Efficacy study in the rat MCT model; type: in vivo
Method: Efficacy Study in the Rat MCT Model.
Male Sprague Dawley rats received MCT 60 mg/kg IPMCT, and after 3 weeks, PK10453 or vehicle control were administered by inhalation. Four groups were studied: vehicle control (4 min exposure) and three treatment groups of PK10453 with exposure times 2 minutes (D2), 4 minutes (D4), or 8 minutes (D8) three times a day. These regimens were administered for two weeks. The vehicle consisted of aerosolized IM tosylic acid neutralized with ammonia vapor as described above. The pH of a solution prepared by dissolving captured aerosol particles in water was measured for every dose and was consistently in the range of 5.5-6.0. At the end of the study, the RV systolic pressure (RVSP) was measured, and the heart chambers dissected and weighed.

[7] = tested on: rat MCT+PN model of PAH; test: Rat MCT+PN model efficacy: PV loops, RV hypertrophy; type: in vivo; conditions: for HR / EF / ESP / CO / EDP / EDV / ESV / SV / SW: MCT+PN, mean, n=4; for EF / ESP: RV
Method: In a separate cohort of animals, the MCT+PN model was developed as described above, and PK10453 was then administered for 4 minutes or 8 minutes three times a day to the drug treated group. The vehicle control group underwent 4 minute exposures three times a day. Pressure Volume (PV) loops were obtained with an admittance system (Scisense, Inc.) after 14 days of treatment, while rats were under general anesthesia with isoflurane and 100% FiO2.
PV loop study. The RV end systolic pressure (ESP) was lower and the RV ejection fraction (EF) was higher in both the D4 and D8 treatment groups compared to vehicle control. Cardiac output in the D8 group was increased compared to the Vehicle group. The study animals underwent left pneumonectomy followed 7 days later by MCT 60 mg/kg IP. Two weeks after MCT administration, PK10453 or vehicle were given by inhalation three times a day for two weeks. PV loops were acquired at the end of this period. With respect to Table 3: V=vehicle; D4=4 minute inhalation PK10453; D8=8 minute inhalation PK10453; n=4 each group; *p<0.001; **p≦0.01; §p<0.05 vs. V.

[8] = tested on: rat MCT+PN model of PAH; test: Telemetry study of PA pressure in the rat MCT+PN model; type: in vivo
Method: Efficacy Study in the Rat MCT+PN Model.
Pneumonectomy and implantation of a TRM53P telemetry monitor in the pulmonary artery (Telemetry Research, New Zealand and ADInstruments, Colorado) was carried out in rats. Two weeks after MCT, PK10453 was administered three times daily for 1 week. Dosing was begun 2 weeks after MCT rather than 3 weeks, because in this more aggressive model the animals developed PAH more quickly and developed distress sooner than in MCT only treated animals (Pulmokine unpublished data). The two groups underwent 4 minute exposures of either the vehicle control or PK10453. Sampling of PA pressure was performed 5 minutes before each morning dose in ambulatory animals in room air (est. pressure 716 mm Hg based on elev. of animal facility).

[9] = tested on: rat MCT+PN model of PAH; test: Histology and morphometric analysis of pulmonary arterioles, MCT+PN model; type: in vivo
Excerpt: Histology and Morphometric Analysis.
At the end of the study, the heart and lungs were removed from ventilated animals under general anesthesia. Heparinized saline was infused under pressure through the main pulmonary artery. The right upper lobe was immediately tied off and placed in liquid nitrogen for Western blot and NanoPro 100 assay analysis. The heart was removed, and the RV free wall, interventricular septum and LV free wall dissected and weighed. Buffered formalin (10%) was infused under pressure both through the pulmonary artery and the trachea. Morphometric analysis was performed on H&E stained formalin fixed tissue sectioned at 8 μm. The media area and lumen area of pulmonary arterioles were measured with Image J software by a technician blinded to treatment group. Measurements were made on 20 pulmonary arterioles per section. The ratio of the lumen area to the total media area was determined. This ratio normalizes the variation in total pulmonary arteriole area.

[10] = tested on: pSTAT3/STAT3; test: NanoPro immunoassay of lung extracts, MCT+PN model; type: in vivo, rat; conditions: D4 and D8 groups compared to vehicle
Method: (§1) NanoPro Immunoassay. Relative differences in phosphorylated ERK1/2 and STAT isoforms were measured with a NanoPro100® immunoassay system (Protein Simple/Cell Biosciences, CA). See Fan et al., “Nanofluidic proteomic assay for serial analysis of oncoprotein activation in clinical specimens.” Nat Med 15:566-571 (2009).

[11] = tested on: phospho-ERK1/2 and total ERK1/2; test: NanoPro immunoassay of lung homogenates, MCT+PN model; type: in vivo, rat; conditions: D4 and D8 groups compared to vehicle
Method: as §1

[12] = Systemic blood pressure study in ambulatory MCT treated rats; type: in vivo, rat; conditions: inhaled
Method: Systemic Blood Pressure Study.
The effect of PK10453 on systemic BP was studied in ambulatory MCT treated rats with DSI PAC40 transmitters implanted in the descending aorta. Three weeks after administration of MCT 60 mg/kg IP, animals inhaled PK10453 or vehicle three times/day with 4 minute exposure each dose for 7 days. Blood pressure was recorded before each morning dose.

[13] = Body weight, MCT+PN model (FIG. 11); type: in vivo, rat; conditions: treated vs. vehicle groups
Excerpt: FIG. 11 is a graphic representation of subject body weight in vehicle administered and PK10453 treated subjects, where squares indicate vehicle treated (n=10), triangles indicate PK10453 D4 group (n=10), and diamonds indicate PK10453 D8 group (n=6).

[14] = Two chamber plethysmography, rat MCT+PN model; type: in vivo; conditions: for TV / MV: MCT+PN, mean
Method: Plethysmography was performed with an EMKA dual chamber plethysmograph and IOX software. Parameters measured included breathing frequency, tidal volume, minute ventilation, peak inspiratory and expiratory flow, and airway resistance (SRaw). Animals were acclimatized to the plethysmograph for three days prior to first data acquisition. Measurements were made prior to the first dose of drug and at the study's end.

Sequence of PDGFR beta receptor (P09619 33-1106): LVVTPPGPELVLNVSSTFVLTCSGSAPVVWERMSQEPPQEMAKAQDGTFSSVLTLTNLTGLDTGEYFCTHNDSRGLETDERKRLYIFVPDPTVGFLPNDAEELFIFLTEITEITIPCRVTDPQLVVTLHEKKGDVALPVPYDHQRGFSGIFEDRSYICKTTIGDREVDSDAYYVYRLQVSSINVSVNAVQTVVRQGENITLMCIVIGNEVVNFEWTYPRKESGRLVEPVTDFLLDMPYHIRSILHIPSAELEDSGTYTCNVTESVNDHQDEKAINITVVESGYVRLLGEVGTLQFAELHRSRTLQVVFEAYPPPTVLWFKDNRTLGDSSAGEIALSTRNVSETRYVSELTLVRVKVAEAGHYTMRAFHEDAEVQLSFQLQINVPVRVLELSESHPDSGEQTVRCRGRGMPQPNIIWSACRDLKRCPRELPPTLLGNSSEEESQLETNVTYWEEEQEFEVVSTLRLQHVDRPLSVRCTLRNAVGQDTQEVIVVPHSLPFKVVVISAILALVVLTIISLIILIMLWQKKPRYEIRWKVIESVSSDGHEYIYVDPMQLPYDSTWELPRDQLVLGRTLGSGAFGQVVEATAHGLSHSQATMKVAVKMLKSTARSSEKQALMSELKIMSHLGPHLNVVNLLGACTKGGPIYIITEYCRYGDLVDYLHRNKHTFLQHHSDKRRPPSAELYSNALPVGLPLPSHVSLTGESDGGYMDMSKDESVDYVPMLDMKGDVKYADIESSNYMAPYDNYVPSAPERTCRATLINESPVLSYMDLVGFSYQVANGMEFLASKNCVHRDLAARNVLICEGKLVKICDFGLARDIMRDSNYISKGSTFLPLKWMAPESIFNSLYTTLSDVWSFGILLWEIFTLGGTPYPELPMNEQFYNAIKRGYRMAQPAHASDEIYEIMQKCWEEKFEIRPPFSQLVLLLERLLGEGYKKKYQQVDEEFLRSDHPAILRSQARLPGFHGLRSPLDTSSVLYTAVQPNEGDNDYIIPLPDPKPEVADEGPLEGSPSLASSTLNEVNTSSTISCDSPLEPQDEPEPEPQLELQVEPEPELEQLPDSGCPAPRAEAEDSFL
T1 sequence (P16234 24-1089): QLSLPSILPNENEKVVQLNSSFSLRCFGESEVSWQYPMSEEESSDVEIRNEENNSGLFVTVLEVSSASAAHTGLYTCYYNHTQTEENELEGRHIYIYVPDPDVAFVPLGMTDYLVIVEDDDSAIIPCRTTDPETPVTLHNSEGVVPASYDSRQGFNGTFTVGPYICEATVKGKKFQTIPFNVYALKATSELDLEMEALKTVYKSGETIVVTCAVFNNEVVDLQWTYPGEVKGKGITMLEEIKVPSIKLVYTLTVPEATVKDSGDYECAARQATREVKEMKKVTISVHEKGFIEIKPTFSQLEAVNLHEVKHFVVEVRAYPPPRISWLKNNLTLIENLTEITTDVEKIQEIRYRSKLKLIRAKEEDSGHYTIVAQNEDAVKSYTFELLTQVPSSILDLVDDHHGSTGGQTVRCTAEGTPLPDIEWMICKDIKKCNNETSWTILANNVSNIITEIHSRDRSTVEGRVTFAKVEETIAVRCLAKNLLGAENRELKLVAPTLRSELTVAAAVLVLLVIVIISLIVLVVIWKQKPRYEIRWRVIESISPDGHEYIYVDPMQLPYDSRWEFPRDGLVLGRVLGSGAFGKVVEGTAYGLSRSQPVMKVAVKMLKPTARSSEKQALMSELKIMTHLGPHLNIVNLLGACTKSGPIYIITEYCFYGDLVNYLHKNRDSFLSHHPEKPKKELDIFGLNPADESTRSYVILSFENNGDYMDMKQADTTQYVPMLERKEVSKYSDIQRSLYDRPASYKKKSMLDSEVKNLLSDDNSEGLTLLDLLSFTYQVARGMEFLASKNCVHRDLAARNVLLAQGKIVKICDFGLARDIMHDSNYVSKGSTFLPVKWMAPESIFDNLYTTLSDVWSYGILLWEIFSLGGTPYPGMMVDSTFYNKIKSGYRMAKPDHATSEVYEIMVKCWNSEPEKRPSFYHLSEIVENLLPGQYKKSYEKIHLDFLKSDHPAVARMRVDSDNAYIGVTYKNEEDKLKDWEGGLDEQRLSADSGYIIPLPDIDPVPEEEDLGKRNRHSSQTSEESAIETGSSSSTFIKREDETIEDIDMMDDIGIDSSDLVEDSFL

COc1cc(-c2cncc(N[C@@H](C)c3cccc(NC(=O)c4cncc(C)c4)c3)n2)ccc1O [PK10453, (S)—N-(3-(1-((6-(4-hydroxy-3-methoxyphenyl)pyrazin-2yl)amino)ethyl)phenyl)-5-methylnicotinamide]
IC50 [1]: 21 nM | IC50 [2]: 15 nM | IC50 [3]: < 500 nM | fluorescence intensity distribution in lung sections [4]: well distributed throughout the lungs | A of Y = AEXP(-bX) ([5]; Lung (INH)): 2498 ng/g lung | b of Y = AEXP(-bX) ([5]; Lung (INH)): 0.03 min⁻¹ | A of Y = AEXP(-bX) ([5]; Lung (IV)): 440 ng/g lung | b of Y = AEXP(-bX) ([5]; Lung (IV)): 0.06 min⁻¹ | A of Y = AEXP(-bX) ([5]; Plasma (INH)): 132.7 ng/g lung | b of Y = AEXP(-bX) ([5]; Plasma (INH)): 0.07 min⁻¹ | A of Y = AEXP(-bX) ([5]; Plasma (IV)): 1260 ng/g lung | b of Y = AEXP(-bX) ([5]; Plasma (IV)): 0.07 min⁻¹ | Rd, pharmacokinetic advantage of inhalation relative to IV ([5]; [(AUClung/AUCplasma)respiratory]/[(AUClung/AUCplasma)IV]): 44.6 fold and 45 fold and 44.58 fold | AUC ([5]; inhaled, Plasma (INH)): 65.5 ng·h/mL | AUC ([5]; Plasma (IV)): 617 ng·h/mL | RVSP ([6]; D2, 2 min inhalation three times a day, two weeks): 51.4±6.5 mm Hg | reduction in RVSP compared to vehicle ([6]; D4): 44% | RVSP ([6]; D4, 4 min inhalation three times a day, two weeks): 44.4±3.8 mm Hg | reduction in RVSP compared to vehicle ([6]; D8): 54% | RVSP ([6]; D8, 8 min inhalation three times a day, two weeks): 37.1±4.5 mm Hg | decrease of RV systolic pressure ([6]; inhaled, dose group not stated): 50% | RV hypertrophy, ratio (RV+IVS)/LV weight ([6]; inhaled, two weeks): significant reduction | RVSP ([7]; D4 MCT+PN group (n=4)): 43.2±6.1 mm Hg | RVSP ([7]; D8 MCT+PN group (n=4)): 38.4±1.4 mm Hg | HR ([7]; D4, 4 minute inhalation 3x/day, two weeks): 288 bpm | EF ([7]; D4): 65.4** | ESP ([7]; D4): 43.20* mm Hg | CO ([7]; D4): 77.59 mL/min | EDP ([7]; D4): 2.62§ mm Hg | EDV ([7]; D4): 408.95 µL | ESV ([7]; D4): 144.14 µL | SV ([7]; D4): 264.81 µL | SW ([7]; D4): 9818 | HR ([7]; D8, 8 minute inhalation 3x/day, two weeks): 315 bpm | EF ([7]; D8): 67.1** | ESP ([7]; D8): 38.44* mm Hg | CO ([7]; D8): 105.1** ml/min | EDP ([7]; D8): 4.87 mm Hg | EDV ([7]; D8): 488.68 µL | ESV ([7]; D8): 155.40 µL | SV ([7]; D8): 333.28** μl | SW ([7]; D8): 5481 | RV hypertrophy ([7]; rat MCT+PN, inhaled, two weeks): significant decrease | PA systolic pressure ([8]; 4 min exposure 3x/day, after five days of treatment): 47.3±3.0 mm Hg | PA systolic pressure ([8]; 4 min exposure 3x/day, treatment day 8): 47.3±4.9 mm Hg | PA systolic pressure ([8]; day 0 prior to start of treatment): 43.1±3.5 mm Hg | lumen area to media area ratio (L/M) ([9]; D4): 0.75±0.14 | lumen area to media area ratio (L/M) ([9]; D8): 1.17±0.07 | pSTAT3/STAT3 ratio [10]: significant reduction | pERK1/ERK1 [11]: significant reductions | ppERK1/ERK1 [11]: significant reductions | effect on systemic blood pressure [12]: did not have an adverse effect; also recorded: no significant effect | body weight [13]: trend to a slower rate of decline | TV ([14]; D4, Day1, prior to first dose): 1.00 mL | MV ([14]; D4, Day15): 176.12§ ml/min | TV ([14]; D4, Day15): 0.85 mL | TV ([14]; D8, Day1, prior to first dose): 0.74 mL | MV ([14]; D8, Day15): 128.49 mL/min | TV ([14]; D8, Day15): 0.63 mL | effect on lung function ([14]; inhaled, 2 wk administration course): did not appear to adversely affect; also recorded: no adverse effect
